Laboratory results as given in patent US5877185A, “Synergistic compositions useful as anti-tumor agents” (priority 1995, dated 1999).
Entries after “also recorded” stand apart in the source; their conditions may differ.

Experiments:
[1] = test system: SIVmac239 or virus isolates in CEM ×174 cells; assay: SIV replication in CEM ×174 cells, SIV p27 core antigen assay; assay type: cell-based
Excerpt: Infected cell cultures described in FIG. 4 were used for determination of supernatant virus titers by SIV p27 core antigen assay as described in Example XIV. The ordinate represents p27 ELISA performed on day 10 of the assay and the abscissa represents the concentration of INO2 BA alone (rear rows in panels A, B and C) and in combination with BSO (front rows in panels A, B and C).
CEM ×174 cells (3×10^5 /ml) were infected with 3.75 TCID50 /ml (50% tissue culture infectious dosage per ml of cell suspension) stock solution of SIVmac239 or virus isolates from SIVmac239-infected rhesus macaques on day 0. Uniform infection of cells was ensured by the infection of one cell population only per virus preparation. Three days post-infection, the cells were distributed (500 μl/well) into individual wells of a 24-well plate. Fresh medium containing INO2 BA concentrations ranging from 0 to 300 μM and/or BSO concentrations ranging from 0 to 0.25 mM were added to establish final 1-ml reaction volumes, and the cultures were further incubated for 4 days. The wells were then replenished with fresh CEM ×174 cells (3×10^5 /ml), INO2 BA and/or BSO were re-added at the same concentrations as in the original incubates, and incubation was continued for an additional 3 days. This procedure intends to mimic conditions of in vivo chemotherapy. Cell viability and virus titers in the supernatant were determined on day 10 (3 days after the addition of new cells) by the tetrazolium (MTT) method of Hansen et al., J. Immunol. Methods 119:208-210 (1982) and by the SIV p27 and reverse transcriptase (RT) assays described by Chuang et al., FEBS Lett. 326:140-144 (1993), respectively.
SIVmac p27 core antigen levels were determined by an enzyme immunoassay provided by Coulter Corp. (Hialeah, Fla.). The assay was performed according to the manufacturer's specifications.

[2] = test system: L-1210 cells; assay: time course of cell killing alone and with BSO, L-1210; assay type: cell-based, murine; details: L-1210, 2-3 day period; 1 mM BSO
Description: (§1) Molt 4-cells were seeded at a density of 0.05×10^6 cell/ml in the recommended growth medium in the absence or the presence of drugs as indicated. Cells were incubated at 37° C. in a 5% CO2 atmosphere and proliferation was monitored in 14 hr. by cell counting in a hemacytometer. .smallcircle., untreated control; .circle-solid., treated with 4 μM 4-iodo-3-nitrobenzoic acid; .gradient., treated with 1 mM BSO; .tangle-soliddn., treated with 4 μM-iodo-3-nitrobenzoic acid and 1 mM BSO; .quadrature., treated with 4 μM 4-INO2 BA; .box-solid., treated with 1 mM BSO; .gradient., treated with 4 μM INO2 BA and 1 mM BSO. L-1210 cells were seeded at a density of 0.05×10^6 cells/ml either from untreated stock suspensions or from 24-hr. pretreated (0.2×10^6 cells/ml) suspensions. .smallcircle., untreated control; .circle-solid., treated with […] NOBA; .gradient., treated with 1 mM BSO; .tangle-soliddn., 24-hr pretreatment with 1 mM BSO then treated with 4 μM NOBA.
(§2) A time course of the cell killings by 4-iodo-3-nitrobenzoic acid, INO2 BA and NOBA, each alone and in combination with BSO was obtained. Molt-4 cells were seeded at a density of 0.05×10^6 cells/ml in the recommended growth medium in the absence or presence of drugs as indicated in FIG. 3. Drugs were added to the wells immediately after seeding from 10-40 mM stock solution in DMSO. BSO was added from a 100 mM aqueous stock solution. Cells were incubated at 37° C. in a 5% CO2 atmosphere and proliferation was monitored in 14 hours by cell counting in a hemacytometer.

[3] = test system: SIV 22803 (AZT-resistant); assay: AZT-resistant SIV propagation (syncytia formation), SIV 22803; assay type: cell-based; details: INO2 BA 0, BSO 0.05 mM
Description: (§3) CEM × 174 (3 × 10^5 /ml) were infected with equal doses o
(§4) SIVmac239 or virus isolates from SIVmac239infected rhesus macaques (MMU
(§5) 23686, 22803). Three days postinfection, INO2 BA concentrations
(§6) ranging from 0 to 300 μM with or without BSO were added, and incubated
(§7) for an additional 3 days. Cell cultures were then examined for syncytia
(§8) formation. The number of syncytia in cell cultures was counted in
(§9) arbitration fields under 40× magnification and scored as follows: […]

[4] = test system: Molt-4 cells; assay: time course of cell killing alone and with BSO, Molt-4; assay type: cell-based; details: Molt-4, 2-3 day period; 4 μM drug, 1 mM BSO
Description: as §1, §2

[5] = test system: cellular GSH; assay: cellular GSH levels under BSO; assay type: cell-based; details: at the concentrations applied
Description: The role of cellular GSH was determined by the simultaneous addition of INO2 BA and BSO (an inhibitor of GSH biosynthesis, Meister, Pharmacology and Therapeutics 51:155-194 (1991), which at the concentrations applied diminished cellular GSH levels below 5-10% of controls.) The results are tabulated below in Table 3.

[6] = literature; cited from earlier work
[7] = test system: SIV 23686 (AZT-resistant); assay: AZT-resistant SIV propagation (syncytia formation), SIV 23686; assay type: cell-based; details: INO2 BA 0, BSO 0.01 mM
Description: as §3, §4, §5, §6, §7, §8, §9

[8] = test system: tumor cells; details: Hakam et al.; cited from earlier work
[9] = weakly basic conditions; cited from earlier work
[10] = test system: MDA 468; assay: effect of nitroso- and nitro-compounds in mammary cancer cells (monolayer), MDA 468; assay type: cell-based, human; details: drug exposure 24-48 hours
Description: II. I50 and LD100 Values for Nitroso- and Nitro-Compounds in (A) Mammary Cancer Cells (monolayer cultures) and in (B) L-1210 Murine Leukemia Cells (suspension culture).
Seeding was at 2×10^4 or 0.8×10^4 cells/cm^2, drugs were added 6-18 hours after seeding, and drug exposure time was 24-48 hours.

[11] = reduction by GSH and ascorbate in in vitro chemical tests; assay type: physicochemical
[12] = test system: pADPRT; assay: pADPRT enzyme inactivation; assay type: biochemical; details: 2 hr at 25° C.
Description: FIG. 1 is a graph comparing the inactivation of pADPRT by NOBA and INOBA. pADPRT inactivation was performed in 20-μl volumes of buffer containing 50 mM Hepes (pH 7.4), 100 mM KCl, 0.5 mM EDTA, pADPRT (0.4 μg/μl) and different concentrations of inactivators. Inactivators were serially diluted in the above buffer from a 20 mM stock solution in DMF. The DMF concentration (2.5%) was kept constant in the inactivation mixes. After 2 hr. at 25° C., aliquots (3 μl) were removed for assay of enzyme activity in a volume of assay mix (200 μl) in which the inactivators were dilute enough not to act as inhibitors. The assay mix consisted of 100 mM Tris (pH 7.7), 14 mM 2-mercaptoethanol, 0.1 mM [^32 P]-NAD^+, 0.2 mg/ml coDNA and 0.1 mg/ml histones. The incorporated ^32 P, proportional to enzyme activity, is plotted as percent of the untreated sample.
NOBA and INOBA were assayed for their respective effects on pADPRT enzyme inactivation and pADPRT zinc content according to the methods described in Buki et al., FEBS Lett. 290:181-185 (1991) at pH 7.0. pADPRT inactivation was performed in 20-μl volumes of buffer containing 50 mM Hepes (pH 7.4), 100 mM KCl, 0.5 mM EDTA, pADPRT (0.4 μg/μl) and different concentrations of inactivators. Inactivators were serially diluted in the above buffer from a 20 mM stock solution in DMF. The DMF concentration (2.5%) was kept constant in the inactivation mixes. […]

[13] = test system: pADPRT; assay: pADPRT zinc content / zinc ejection; assay type: biochemical; details: 25° C.
Description: FIG. 2A is a graph comparing the effects of NOBA and INOBA on the enzyme activity and zinc content of pADPRT. Inactivation was performed as described in Example III. In these experiments ^65 Zn^2+ -labeled pADPRT was used. The Zn^2+ content of pADPRT (upper panel) was determined as follows: two parallels of aliquots (4 μl) were pipetted into 500 μl of ice-cold washing solution (50 mM Tris, pH 7.7, 10 mM 2-mercaptoethanol and 0.5 mM EDTA) then filtered onto GF/C disks presoaked in washing solution (cold), quickly washed 4 times with 1 ml of ice-cold washing solution, dried, and the radioactivity determined. The protein-bound ^65 Zn^2+ is shown as percent of the untreated sample. Enzyme assays (lower panel) were performed as in FIG. 1.
For the release of Zn^2+ from transblotted pADPRT, the enzyme (3 μg per lane) was separated on SDS-PAGE, transblotted onto a nitrocellulose membrane, and renatured in the presence of ^65 ZnCl2. […] After incubation, 1 ml of the supernatant was counted for radioactivity, and the strips were washed 3 times with 2 ml of 50 mM Tris-HCl pH 7.4), 0.5 mM EDTA and 10 Mm 2-mercaptoethanol, and then dried and exposed to X-ray film. The intensity of the autoradiographic spots was quantitated by a scanner. […]

With `CCCCS(=N)(=O)CCC(N)C(=O)O` (racemic) [BSO, DL-buthionine sulfoximine, reference compound] the “effect on p27 formation / SIV replication” value ([1]; BSO alone, FIG. 5D) was “no effect”, the “effect on cell proliferation” value [2] was “no significant effect” and the Syncytia [3] was “++++ (over 30)”. The “effect on cell proliferation” value [4] was “no significant effect”, the “cellular GSH level” value [5] was 5-10 % of controls and the “toxicity of BSO” value [6] was “very low; also recorded: non-toxicity”. For the same molecule, the Syncytia [7] was “+++ (20-30)”.

In the case of `Nc1ccc2oc(=O)ccc2c1` [6-amino-1,2-benzopyrone], the anti-tumor effects [8] is listed as “anti-tumor effects”.

In the case of `NC(=O)c1cccc(N(O)S(=O)(=O)CC(N)C(=O)O)c1` (centres unmarked), the “release of C-nitroso molecule” value [9] is listed as “releases the C-nitroso molecule at weakly basic conditions”.

In the case of `O=c1ccc2c(I)c([N+](=O)[O-])ccc2o1` [INO2 BP, 5-iodo-6-nitro-1,2-benzopyrone], the I50 [10] is reported as 260 Namomoles/cm × 10^4 cells.

In the case of `NC(=O)c1ccc(I)c(N=O)c1` [INOBA, 4-Iodo-3-Nitrosobenzamide], the “effect of GSH depletion by BSO on inhibitory effect on SIV replication” value ([1]; with BSO, CEM ×174 cells) is reported as “synergistically enhances”, the “reduction to the corresponding hydroxyl amines” value [11] is reported as “rapidly reduced” and the “inactivation of pADPRT, NOBA vs INOBA” value [12] is reported as “more effective inactivator of pADPRT”. For the same molecule, the “time in which zinc ejection was complete” value [13] was no more than 2 h.
